The supplement of paper PMC12613149

What was measured:
[1] = collision cross section (TIMS, N2 drift gas) of the primary ion; higher = larger gas-phase ion size
[2] = reversed-phase LC retention time (C18, 15 min MeOH gradient); higher = more hydrophobic / later elution
[3] = ionization mode: ESI-, ion species: [M-H]-
[4] = ionization mode: ESI+, ion species: [M+H]+
[5] = ionization mode: ESI+, ion species: [M]+

SMILES	collision cross section [1, 3]	reversed-phase LC retention time [2, 3]	collision cross section [1, 4]	reversed-phase LC retention time [2, 4]	collision cross section [1, 5]	reversed-phase LC retention time [2, 5]
Nc1ccc(/C=C/c2ccc(N)cc2S(=O)(=O)O)c(S(=O)(=O)O)c1 [4,4'-Diaminostilbene-2,2'-disulfonic acid]	178.47 Å²	0.97 min				
CCCCc1ncc(C(=O)O)n1Cc1ccc(C(=O)O)cc1 [Eprosartan acid]	178.16 Å²	7.27 min				
O=P(O)(OCCC(F)(F)C(F)(F)C(F)(F)C(F)(F)C(F)(F)C(F)(F)F)OCCC(F)(F)C(F)(F)C(F)(F)C(F)(F)C(F)(F)C(F)(F)F [6:2 Fluorotelomer phosphate diester]	232.73 Å²	17.6 min				
Nc1nc2ccccc2[nH]1 [2-Aminobenzimidazole]			124.95 Å²	5.92 min		
O=C(Nc1ccccc1)N(Cc1ccc(Cl)cc1)C1CCCC1 [Pencycuron]			181.17 Å²	16.1 min		
CCN(CCC#N)c1ccc(N=Nc2c(Br)cc([N+](=O)[O-])cc2Br)cc1 [Disperse Orange 61]			202.21 Å²	16.8 min		
CC(C)OC(=O)CCCCCCCCC(=O)OC(C)C [Diisopropyl sebacate]			172.78 Å²	17 min		
Cc1cccc(C)c1N [2,6-Xylidine]			117.81 Å²	17.9 min		
C[N+]1(C)CCCCC1 [Mepiquat]					118.75 Å²	1.01 min
COc1cc(C2c3cc4c(cc3C(OC3OC5COC(C)OC5C(O)C3O)C3COC(=O)C23)OCO4)cc(OC)c1O (stereo unspecified) [Etoposide_1]	222.47 Å²	11.9 min				
CC(CN1c2ccccc2Sc2ccccc21)N(C)C (stereo unspecified) [Promethazin]			164.06 Å²	12.3 min		
COc1cc(OC)nc(NC(=O)NS(=O)(=O)c2ncccc2C(=O)N(C)C)n1 [Nicosulfuron]	194.5 Å²	8.07 min	193.46 Å²	11.4 min		
CCn1cc(C(=O)O)c(=O)c2cc(F)c(N3CCNCC3)cc21 [Norfloxacin]			173.95 Å²	8.08 min		
O=C1c2c(O)cc(O)cc2O[C@H](c2ccc(O)c(O)c2)[C@H]1O [Taxifolin]	164.44 Å²	5.86 min				
COCC(=O)N(c1c(C)cccc1C(=O)O)C(C)C(=O)O (stereo unspecified)	159.84 Å²	5.43 min				
CC(C)C1(C)N=C(c2ncccc2C(=O)O)NC1=O (stereo unspecified) [Imazapyr]			156.96 Å²	8.78 min		
CC(Oc1ccc(Oc2cnc3cc(Cl)ccc3n2)cc1)C(=O)O (stereo unspecified) [Quizalofop]	192.68 Å²	13.5 min				
Cc1cc(-c2ccc(N)c(C)c2)ccc1N [o-Tolidine]			165.69 Å²	7.76 min		
OCC1OC(OC2(CCl)OC(CCl)C(O)C2O)C(O)C(O)C1Cl (stereo unspecified) [Sucralose]	174.98 Å²	8.22 min				
CCCCNS(=O)(=O)c1ccccc1 [N-Butylbenzenesulfonamide]	148.3 Å²	12.8 min				
CC(C)(C)C(O)C(Oc1ccc(-c2ccccc2)cc1)n1cncn1 (stereo unspecified) [Bitertanol]			192.15 Å²	15.9 min		

SMILES	collision cross section [1, 3]	reversed-phase LC retention time [2, 3]	collision cross section [1, 4]	reversed-phase LC retention time [2, 4]	collision cross section [1, 5]	reversed-phase LC retention time [2, 5]
O=C(Nc1ccccc1)NC1CCCCC1 [1-Cyclohexyl-3-phenylurea]			154.52 Å²	13.2 min		
O=C(Nc1ccc(Cl)cc1)Nc1ccc(Cl)c(Cl)c1 [Triclocarban]	167.79 Å²	16.6 min	173.98 Å²	16.2 min		
C[C@H]1CCCC(=O)CCC/C=C/c2cc(O)cc(O)c2C(=O)O1 [Zearalenone]	178.16 Å²	14.4 min				
O=C(NC(CO)C(O)c1ccc([N+](=O)[O-])cc1)C(Cl)Cl (stereo unspecified) [Chloramphenicol]	165.75 Å²	9.83 min				
CNS(=O)(=O)c1ccccc1 [N-Methylbenzenesulfonamide]	134.48 Å²	8.4 min				
N=C(Nc1ccccc1)Nc1ccccc1 [1,3-Diphenylguanidine]			150.19 Å²	8.61 min		
C[C@]12CCC(=O)C=C1CC[C@@H]1[C@@H]2[C@@H](O)C[C@@]2(C)[C@H]1CC[C@]2(O)C(=O)CO [Hydrocortisone]			189.25 Å²	12.4 min		
Nc1nc(=O)n([C@@H]2CS[C@H](CO)O2)cc1F [Emtricitabine]			146.78 Å²	5.75 min		
CCCCCCCCCCCC(=O)NCCO [N-Lauroylethanolamine]			175.51 Å²	16.4 min		
COP(=O)(OC)OC [Trimethylphosphate]			116.51 Å²	6.15 min		
Nc1ccc(Sc2ccc(N)cc2)cc1 [4,4'-Thiodianiline]			164.43 Å²	9.19 min		
C[C@]12CCC(=O)C=C1CC[C@@H]1[C@@H]2CC[C@]2(C)C(=O)CC[C@@H]12 [4-Androstene-3,17-dione]			172.73 Å²	13.9 min		
O=C(CCc1ccc(O)cc1)c1c(O)cc(O)cc1O [Phloretin]	163.45 Å²	10.6 min	163.11 Å²	11.9 min		
CCOc1nc2cccc(C(=O)O)c2n1Cc1ccc(-c2ccccc2-c2nnn[nH]2)cc1 [Candesartan]	202.36 Å²	9.52 min	196.78 Å²	13.3 min		
C[C@]12CC[C@H]3[C@@H](CCC4=CC(=O)CC[C@@]43C)[C@@H]1CC[C@@H]2O [Testosterone]			172.76 Å²	14.2 min		
O=C(Nc1ccccc1-c1ccc(Cl)cc1)c1cccnc1Cl [Boscalid]			177.19 Å²	14.2 min		
CO/N=C(/C(=O)O)c1ccccc1CO/N=C(/C(=O)O)c1cccc(C(F)(F)F)c1			194.45 Å²	13.1 min		
CC(C)Nc1ccc(Nc2ccccc2)cc1 [N-isopropyl-N-phenyl-p-phenylenediamine]			171.67 Å²	8.47 min		
O=c1c2ccccc2[nH]c2ccccc12 [Acridone]			136.53 Å²	11.1 min		
O=C(O)Cc1ccc(S(=O)(=O)O)cc1 [(4-Sulfophenyl)acetic acid]	135.07 Å²	0.96 min				
O=[N+]([O-])/N=C1\NCCN1Cc1ccc(Cl)nc1 [Imidacloprid]	157.08 Å²	8.7 min	155.98 Å²	8.67 min		

SMILES	collision cross section [1, 3]	reversed-phase LC retention time [2, 3]	collision cross section [1, 4]	reversed-phase LC retention time [2, 4]	collision cross section [1, 5]	reversed-phase LC retention time [2, 5]
CC(C)(O)c1ccccc1CCC(SCC1(CC(=O)O)CC1)c1cccc(C=Cc2ccc3ccc(Cl)cc3n2)c1 (stereo unspecified) [Montelukast]	244.69 Å²	17 min	243.08 Å²	17.7 min		
CCNS(=O)(=O)c1ccccc1C [N-Ethyl-o-toluenesulfonamide]	143.19 Å²	11.5 min				
CC12CC1(C)C(=O)N(c1cc(Cl)cc(Cl)c1)C2=O (stereo unspecified) [Procymidone]	172.16 Å²	15 min				
O=C1CN(/N=C/c2ccc([N+](=O)[O-])o2)C(=O)N1 [Nitrofurantoin]	149.37 Å²	6.35 min				
Oc1ccnc2ccccc12 [4-Hydroxyquinoline]	122.52 Å²	6.7 min	124.53 Å²	6.72 min		
O=S(=O)(O)c1ccc2[nH]c(-c3ccccc3)nc2c1 [Phenylbenzimidazole sulfonic acid]	167.47 Å²	8.23 min	166.31 Å²	7.17 min		
Cc1cc(Cc2ccc(N)c(C)c2)ccc1N [4,4'-Methylene-bis(2-methyl aniline)]			171.67 Å²	8.47 min		
Cc1c(C(C)C)c(=O)n(-c2ccccc2)n1C [Propyphenazone]			153.65 Å²	12.3 min		
O=c1c(O[C@@H]2O[C@H](CO)[C@H](O)[C@H](O)[C@H]2O)c(-c2ccc(O)c(O)c2)oc2cc(O)cc(O)c12 [Hyperin]	201.31 Å²	7.66 min				
C=CCC1(C(C)CCC)C(=O)NC(=O)NC1=O (stereo unspecified) [Secobarbital]	153.23 Å²	12.7 min				
O=C(Nc1ccccc1)Nc1ccccc1 [1,3-Diphenylurea]			148.26 Å²	12.4 min		
CC(C)CCCCCCOC(=O)C1CCCCC1C(=O)OCCCCCCC(C)C (stereo unspecified) [DINCH]			228.01 Å²	20.1 min		
C/C=C1\N(C)C(C)CC1(c1ccccc1)c1ccccc1 (stereo unspecified) [EDDP]			166.21 Å²	11.5 min		
c1ccc2c(c1)[nH]c1ncccc12 [Carboline]	129.53 Å²	12.9 min	132.73 Å²	11.7 min		
CCCCC(=O)N(Cc1ccc(-c2ccccc2-c2nn[nH]n2)cc1)C(C(=O)O)C(C)C (stereo unspecified) [Valsartan]	203.89 Å²	11.8 min	204.42 Å²	14.4 min		
CC(C)(C)c1ccc(CSc2cnn(C(C)(C)C)c(=O)c2Cl)cc1 [Pyridaben]			193.46 Å²	17.9 min		
CCC(C)(C)c1cc(-n2nc3ccccc3n2)c(O)c(C(C)(C)CC)c1 [UV-328]			196.56 Å²	20.1 min		
CCCN(CCC)C(=O)SCc1ccccc1 [Prosulfocarb]			158.12 Å²	16.4 min		
Cc1nc(=O)c(-c2ccccc2)n[nH]1 [Metamitron-desamino]	137.07 Å²	6.92 min	139.91 Å²	8.87 min		
CN(C)C(=O)Nc1ccc(Oc2ccc(Cl)cc2)cc1 [Chloroxuron]			175 Å²	14.6 min		
